# Molecular target: T1, CCR1 (Homo sapiens, UniProt P32246)
# T1 construct: host or cells: THP-1 cells or freshly isolated monocytes
# T1 sequence (P32246 1-355): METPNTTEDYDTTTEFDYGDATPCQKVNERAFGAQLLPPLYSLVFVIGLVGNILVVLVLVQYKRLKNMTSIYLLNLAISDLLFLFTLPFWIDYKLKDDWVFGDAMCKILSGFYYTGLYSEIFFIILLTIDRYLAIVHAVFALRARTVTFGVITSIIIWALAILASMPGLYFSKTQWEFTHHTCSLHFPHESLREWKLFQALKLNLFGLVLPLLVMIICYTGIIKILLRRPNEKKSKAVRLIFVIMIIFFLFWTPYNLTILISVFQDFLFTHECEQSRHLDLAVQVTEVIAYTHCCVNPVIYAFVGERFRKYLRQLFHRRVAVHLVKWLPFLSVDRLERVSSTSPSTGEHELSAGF
# Assay: Chemotaxis assay (inhibition of CCR1 mediated migration)
# Format: cell-based
# Details: THP-1 or monocyte cells; CCR1 chemokine ligand (MIP-1α, CCL15/Leukotactin); 1-2 hours at 37° C.
# Experimental: THP-1 cells were obtained from ATCC (TIB-202) and cultured as a suspension in RPMI-1640 medium supplemented with 2 mM L-glutamine, 1.5 g/L sodium bicarbonate, 4.5 g/L glucose, 10 mM HEPES, 1 mM sodium pyruvate, 0.05% 2-mercaptoethanol and 10% FBS. Cells were grown under 5% CO2/95% air, 100% humidity at 37° C. and subcultured twice weekly at 1:5 (cells were cultured at a density range of 2×10^5 to 2×10^6 cells/mL) and harvested at 1×10^6 cells/mL. THP-1 cells express CCR1 and can be used in CCR1 binding and functional assays. • 2. Chemotaxis Assays
# Chemotaxis assays were performed using 5 μm pore polycarbonate, polyvinylpyrrolidone-coated filters in 96-well chemotaxis chambers (Neuroprobe; Gaithersburg, Md.) using chemotaxis buffer (Hank's balanced salt solution (HBSS) and 1% FBS). CCR1 chemokine ligands (i.e., MIP-1α, CCL15/Leukotactin; R&D Systems; Minneapolis, Minn.) are use to evaluate compound mediated inhibition of CCR1 mediated migration. Other chemokines (i.e., SDF-1α; R&D Systems; Minneapolis, Minn.) are used as specificity controls. The lower chamber was loaded with 29 μl of chemokine (i.e., 0.1 nM CCL15/Leukotactin) and varying amounts of compound; the top chamber contained 100,000 THP-1 or monocyte cells in 20 μl. The chambers were incubated 1-2 hours at 37° C., and the number of cells in the lower chamber quantified either by direct cell counts in five high powered fields per well or by the CyQuant assay (Molecular Probes), a fluorescent dye method that measures nucleic acid content and microscopic observation. • B. Identification of Inhibitors of CCR1
# One of the primary functions of chemokines is their ability to mediate the migration of chemokine receptor-expressing cells, such as white blood cells. To confirm that a compound of interest inhibited not only CCR1 specific binding and signaling (at least as determined by calcium mobilization assays), but also CCR1 mediated migration, a chemotaxis assay was employed. THP-1 myelomonocytic leukemia cells, which resemble monocytes, as wells as freshly isolated monocytes, were used as targets for chemoattraction by CCR1 chemokine ligands (i.e., MIP-1α, CCL15/leukotactin). Cells were placed in the top compartment of a microwell migration chamber, while MIP-1α (or other potent CCR1 chemokine ligand) and increasing concentrations of a compound of interest was loaded in the lower chamber. […] In this assay, the amount of compound was varied; while cell number and chemokine agonist concentrations were held constant. After the chemotaxis chambers were incubated 1-2 hours at 37° C., the responding cells in the lower chamber were quantified by labeling with the CyQuant assay (Molecular Probes), a fluorescent dye method that measures nucleic acid content, and by measuring with a Spectrafluor Plus (Tecan). The computer program Prism from GraphPad, Inc. (San Diego, Calif.) was used to calculate IC50 values. IC50 values are those compound concentrations required to inhibit the number of cells responding to a CCR1 agonist by 50%. • 1. In Vivo Efficacy • a) Rabbit Model of Destructive Joint Inflammation
row,SMILES,IC50 [µM]
1,"CCOc1cc(N2CCN(C(=O)Cn3nc(-c4ncc[nH]4)c4cccnc43)CC2)c(F)cc1Cl [1.001, 1-[4-(4-Chloro-5-ethoxy-2-fluorophenyl)piperazin-1-yl]-2-[3-(1H-imidazol-2-yl)-pyrazolo[3,4-b]pyridin-1-yl]ethanone]",≤ 0.1
2,"O=C(Cn1nc(-c2ncc[nH]2)c2cccnc21)N1CCN(c2cc(OCCF)c(Cl)cc2F)CC1 [1.002, 1-{4-[4-Chloro-2-fluoro-5-(2-fluoroethoxy)-phenyl]piperazin-1-yl}-2-[3-(1H-imidazol-2-yl)-pyrazolo[3,4-b]pyridin-1-yl]ethanone]",≤ 0.1
3,"CCOc1cc(N2CCN(C(=O)Cn3nc(-c4ncc[nH]4)c4cccnc43)CC2)ccc1Cl [1.003, 1-[4-(4-Chloro-3-ethoxyphenyl)piperazin-1-yl]-2-[3-(1H-imidazol-2-yl)pyrazolo[3,4-b]pyridin-1-yl]ethanone]",≤ 0.1
4,"COc1cc(N2CCN(C(=O)Cn3nc(-c4ncc[nH]4)c4cccnc43)CC2)c(F)cc1Cl [1.004, 1-[4-(4-Chloro-2-fluoro-5-methoxyphenyl)piperazin-1-yl]-2-[3-(1H-imidazol-2-yl)-pyrazolo[3,4-b]pyridin-1-yl]ethanone]",≤ 0.1
5,"COc1cc(N2CCN(C(=O)Cn3nc(-c4ncc[nH]4)c4cccnc43)[C@@H](C)C2)ccc1Cl [1.005, 1-[(S)-4-(4-Chloro-3-methoxyphenyl)-2-methylpiperazin-1-yl]-2-[3-(1H-imidazol-2-yl)-pyrazolo[3,4-b]pyridin-1-yl]ethanone]",≤ 0.1
6,"COc1cc(N2CCN(C(=O)Cn3nc(-c4ncc[nH]4)c4cccnc43)[C@@H](C)C2)c(F)cc1Cl [1.006, 1-[(S)-4-(4-Chloro-2-fluoro-5-methoxyphenyl)-2-methylpiperazin-1-yl]-2-[3-(1H-imidazol-2-yl)pyrazolo[3,4-b]pyridin-1-yl]ethanone]",≤ 0.1
7,"COc1cc(N2CCN(C(=O)Cn3nc(-c4ncc[nH]4)c4cccnc43)C[C@H]2C)ccc1Cl [1.007, 1-[(R)-4-(4-Chloro-3-methoxyphenyl)-3-methylpiperazin-1-yl]-2-[3-(1H-imidazol-2-yl)-pyrazolo[3,4-b]pyridin-1-yl]ethanone]",≤ 0.1
8,"COc1cc(N2CCN(C(=O)Cn3nc(-c4ncc[nH]4)c4cccnc43)C[C@@H]2C)ccc1Cl [1.008, 1-[(S)-4-(4-Chloro-3-methoxyphenyl)-3-methylpiperazin-1-yl]-2-[3-(1H-imidazol-2-yl)-pyrazolo[3,4-b]pyridin-1-yl]ethanone]",≤ 0.1
9,"COc1cc(N2CCN(C(=O)Cn3nc(-c4ncc[nH]4)c4cccnc43)[C@H](C)C2)ccc1Cl [1.009, 1-[(R)-4-(4-Chloro-3-methoxyphenyl)-2-methylpiperazin-1-yl]-2-[3-(1H-imidazol-2-yl)-pyrazolo[3,4-b]pyridin-1-yl]ethanone]",≤ 0.1
10,"COc1cc(N2CCN(C(=O)Cn3nc(-c4ncc[nH]4)c4cccnc43)CC2)ccc1Cl [1.016, 1-[4-(4-Chloro-3-methoxy-phenyl)-piperazin-1-yl]-2-[3-(1H-imidazol-2-yl)-pyrazolo[3,4-b]pyridin-1-yl]-ethanone]",≤ 0.1

# Further lines, results first:
row,IC50 [µM],SMILES
1,≤ 0.1,"CCOc1cc(N2CCN(C(=O)Cn3nc(-c4ncc[nH]4)c4cccnc43)[C@@H](C)C2)ccc1Cl [1.010, 2-(3-(1H-imidazol-2-yl)-1H-pyrazolo[3,4-b]pyridin-1-yl)-1-((S)-4-(4-chloro-3-ethoxyphenyl)-2-methylpiperazin-1-yl)ethanone]"
2,≤ 0.1,"O=C(Cn1nc(-c2ncc[nH]2)c2cccnc21)N1CCN(c2ccc(Cl)c(OCCF)c2)CC1 [1.011, 2-(3-(1H-imidazol-2-yl)-1H-pyrazolo[3,4-b]pyridin-1-yl)-1-(4-(3-(2-fluoroethoxy)-4-chlorophenyl)piperazin-1-yl)ethanone]"
3,≤ 0.1,"C[C@H]1CN(c2ccc(Cl)c(OCCF)c2)CCN1C(=O)Cn1nc(-c2ncc[nH]2)c2cccnc21 [1.012, 2-(3-(1H-imidazol-2-yl)-1H-pyrazolo[3,4-b]pyridin-1-yl)-1-((S)-4-(3-(2-fluoroethoxy)-4-chlorophenyl)-2-methylpiperazin-1-yl)ethanone]"
4,≤ 0.1,"Cc1cc(N2CCN(C(=O)Cn3nc(-c4ncc[nH]4)c4cccnc43)CC2)ccc1Cl [1.013, 1-[4-(4-Chloro-3-methyl-phenyl)-piperazin-1-yl]-2-[3-(1H-imidazol-2-yl)-pyrazolo[3,4-b]pyridin-1-yl]-ethanone]"
5,> 0.1,"O=C(Cn1nc(-c2ncc[nH]2)c2cccnc21)N1CCN(c2ccc(Cl)c(C(F)(F)F)c2)CC1 [1.014, 1-[4-(4-Chloro-3-trifluoromethyl-phenyl)-piperazin-1-yl]-2-[3-(1H-imidazol-2-yl)-pyrazolo[3,4-b]pyridin-1-yl]-ethanone]"
6,> 0.1,"O=C(Cn1nc(-c2ncc[nH]2)c2cccnc21)N1CCN(c2ccc(Cl)c(OC(F)(F)F)c2)CC1 [1.015, 1-[4-(4-Chloro-3-trifluoromethoxy-phenyl)-piperazin-1-yl]-2-[3-(1H-imidazol-2-yl)-pyrazolo[3,4-b]pyridin-1-yl]-ethanone]"
7,≤ 0.1,"COc1cc(N2CCN(C(=O)Cn3nc(-c4nccn4C)c4cccnc43)CC2)ccc1Cl [1.017, 1-[4-(4-Chloro-3-methoxy-phenyl)-piperazin-1-yl]-2-[3-(1-methyl-1H-imidazol-2-yl)-pyrazolo[3,4-b]pyridin-1-yl]-ethanone]"

# Tested on: not listed separately
# Assay: Pharmacokinetic tests conducted in animals
# Format: in vivo
# Details: over related compounds (U.S. Publication No. 2007/0010524A1)
SMILES,AUC,Cmax,oral bioavailability
"COc1cc(N2CCN(C(=O)Cn3nc(-c4ncc[nH]4)c4cccnc43)CC2)ccc1Cl [1.016, 1-[4-(4-Chloro-3-methoxy-phenyl)-piperazin-1-yl]-2-[3-(1H-imidazol-2-yl)-pyrazolo[3,4-b]pyridin-1-yl]-ethanone]",increased,increased,improved

# Tested on: Female New Zealand rabbits
# Assay: Rabbit model of destructive joint inflammation (rabbit LPS study)
# Format: in vivo
# Details: intra-articular LPS (10 ng) in both knees; dosed orally 2 hours before and 4 hours after LPS; knees lavaged sixteen hours after LPS
# Experimental: A rabbit LPS study was conducted essentially as described in Podolin, et al. J. Immunol. 169(11):6435-6444 (2002). Female New Zealand rabbits (approximately 2 kilograms) were treated intra-articularly in both knees with LPS (10 ng). The compound of interest, for example 1.016, (formulated in 1% methocel) or vehicle (1% methocel) was dosed orally at a 5 ml/kg dose volume at two times (2 hours before the intra-articular LPS injection and 4 hours after the intra-articular LPS injection). Sixteen hours after the LPS injection, knees were lavaged and cells counts were performed. Beneficial effects of treatment were determined by reduction in the number of inflammatory cells recruited to the inflamed synovial fluid of the knee joints.
row,SMILES,number of inflammatory cells recruited to the inflamed synovial fluid of the knee joints
1,"COc1cc(N2CCN(C(=O)Cn3nc(-c4ncc[nH]4)c4cccnc43)CC2)ccc1Cl [1.016, 1-[4-(4-Chloro-3-methoxy-phenyl)-piperazin-1-yl]-2-[3-(1H-imidazol-2-yl)-pyrazolo[3,4-b]pyridin-1-yl]-ethanone]",significant reduction

# Tested on: not given
# Assay: not given
# Details: not given
row,SMILES,melting point [°C]
1,"COc1cc(N2CCN(C(=O)Cn3nc(-c4ncc[nH]4)c4cccnc43)CC2)ccc1Cl [1.016, 1-[4-(4-Chloro-3-methoxy-phenyl)-piperazin-1-yl]-2-[3-(1H-imidazol-2-yl)-pyrazolo[3,4-b]pyridin-1-yl]-ethanone]",149 to 152
